# “And” between values parts separate entries of the source, which are not always exact repeats. Equal values may be shown once. “Also recorded” adds a separate entry of the source.
# Tests used:
# [1] = Quenching of the ABTS radical cation
# Procedure: The iron chelators were tested for their ability to quench the radical cation formed from 2,2′-azinobis(3-ethylbenzothiazoline-6-sulfonic acid) (ABTS) by the method of Re et al. in Free Radic. Biol. Med. 26, 1231-1237 (1999). Briefly, a stock solution of ABTS radical cation was generated by mixing ABTS (10 mM, 2.10 mL) with K2S2O8 (8.17 mM, 0.90 mL) in H2O and […] deep blue-green ABTS radical cation was diluted in sufficient sodium phosphate (10 mM, pH 7.4) to give an A734 of about 0.900. Test compounds were added to a final concentration ranging from 1.25 to 15 μM, and the decrease in A734 was read after 1, 2, 4 and 6 min. The reaction was largely complete by 1 min, but the data presented are based on a 6-min reaction time.
# In this assay, a fairly stable radical cation, ABTS^+, was examined, and Trolox, an analog of vitamin E, was used as a positive control. Briefly, the procedure involved generating the blue-green chromophore by the reaction of ABTS with K2S2O8. The radical has absorption maxima at λ=415, 645, 734, and 815 nm. The change in absorbance at 734 nm was noted 6 min after addition of the chelator of interest at various concentrations, and the slope of the ΔA734 vs. ligand concentration line was calculated.
# The iron chelators were tested for their ability to quench the radical cation formed from 2,2′-azinobis(3-ethylbenzothiazoline-6-sulfonic acid) (ABTS) by a published method (Re, R., et al., Free Radical Biol. Med. 26:1231-1237 (1999). Briefly, a stock solution of ABTS radical cation was generated by mixing ABTS (10 mM, 2.10 mL) with K2S2O8 (8.17 mM, 0.90 mL) in H2O and allowing the solution to sit in the dark at room temperature for 18 hours. This stock solution of deep blue-green ABTS radical cation was diluted in sufficient sodium phosphate (10 mM, pH 7.4) to give an A734 of about 0.900. Test compounds were added to a final concentration ranging from 1.25 to 15 μM, and the decrease in A734 was read after 1, 2, 4 and 6 min. The reaction was largely complete by 1 min, but the data presented are based on a 6-min. reaction time.
# This radical cation decolorization assay utilizes the pre-formed radical monocation of 2,2′-azinobis(3-ethylbenzothiazoline-6-sulfonic acid) (ABTS) and has been used to evaluate the antioxidant capacity of a large number of compounds and mixtures. Briefly, the change in absorbance of the blue-green chromophore was recorded after the addition of the chelator of interest at each of the different concentrations, and the slope of the ΔA734 vs. ligand concentration line was calculated. The positive control for this reaction was Trolox, an analogue of vitamin E. The decrease in A734 as a function of ligand concentration is the comparitor among the five compounds evaluated. Trolox, L1, DFO, (S)-4′-(HO)-DADMDFT and BDU (Table 3). All four of the iron chelators performed better than Trolox; DFO≈BDU>(S)-4′-(HO)-DADMDFT>L1>Trolox. Thus, all of these ligands could be expected to serve as excellent radical scavengers.
# iron [2] = assay: Iron clearance in the non iron-overloaded, bile duct-cannulated rodent model; assay type: in vivo, Sprague-Dawley rats
# Procedure: Briefly, male Sprague-Dawley rats averaging 450 g were housed in Nalgene plastic metabolic cages during the experimental period and given free access to water. The animals were anesthetized using sodium pentobarbital (55 mg/kg) administered intraperitoneally. The bile duct was cannulated using 22-gauge polyethylene tubing. The cannula was inserted into the duct about 1 cm from the duodenum and tied snugly in place. After threading through the shoulder, the cannula was passed from the rat to the swivel inside a metal torque-transmitting tether, which was attached to a rodent jacket around the animal's chest. The cannula was directed from the rat to a Gilson microfraction collector (Middleton, Wis.) by a fluid swivel mounted above the metabolic cage. Bile samples were collected at 3 hour intervals for 24 hours. The urine sample was taken at 24 hours and handling was as previously described. (Bergeron, R. J., et al., J. Med. Chem. 34:2072-2078 (1991).
# (§1) The iron chelators were solubilized in 40% Cremophor RH-40/water (v/v) and given orally and subcutaneously to the rats at the doses shown in Table 4. In the primates, DFO was dissolved in sterile H2O at a concentration of 50 or 100 mg/mL and given orally or subcutaneously at a volume of 1 ml/kg. The desferrithiocin analogues were solubilized in 40% Cremophor RH-40/water (v/v) and given orally to the monkeys at the doses shown in Table 4. However, the desferrithiocin analogues were administered subcutaneously as either a suspension in distilled H2O or as their sodium salts in solution as indicated in Table 4.
# (§2) Iron clearance studies were carried out both in the non iron-overloaded, bile duct-cannulated rodent model and in the iron-overloaded Cebus apella monkey, and the results are reported as iron clearing efficiency (Table 4). This number is generated by dividing the net iron clearance [total iron excretion (bile or stool plus urine) minus background] by the theoretical iron clearance and multiplying by 100. The theoretical iron clearance is based on a 2:1 metal complex stoichiometry for 4′-(HO)-DADMDFT, a 1:1 stoichiometry for DFO, and a 1:1 stoichiometry for BDU, as shown in the Job's plot (FIG. 5). Data are presented as the mean±the standard error of the mean. The drugs were administered both orally (po) and subcutaneously (sc) to the rodents and primates; the positive control was DFO.
# iron [3] = assay: Iron clearance in the iron-overloaded Cebus apella monkey; assay type: in vivo; conditions: as sodium salt
# Procedure: The monkeys were iron overloaded with intravenous iron dextran to provide about 500 mg iron per kg body weight. The serum transferrin iron saturation rose to between 70 and 80%. At least twenty half-lives, sixty days, elapsed before any of the animals were used in experiments evaluating iron-chelating agents.
# Fecal and urine samples were collected at 24 hour intervals and processed. Briefly, the collections began 4 days prior to the administration of the test drug and continued for an additional 5 days after the drug was given. Iron concentrations were determined by flame atomic absorption spectroscopy.
# as §1, §2
# [4] = Prevention of iron-mediated oxidation of ascorbate (ascorbate-mediated reduction of Fe(III)); conditions: ascorbate 100 μM, FeCl3 30 μM, pH 7.4, ligand/Fe ratios 0-3, 40 min
# Procedure: (§3) The iron chelators were tested for their ability to diminish the iron-mediated oxidation of ascorbate by the method of Dean and Nicholson (Free Radical Res. 20, 83-101 (1994)). Briefly, a solution of freshly prepared ascorbate (100 μM) in sodium phosphate buffer (5 mM, pH 7.4) was incubated in the presence of FeCl3 (30 μM) and chelator (ligand/Fe ratios varied from 0-3) for 40 min. The A265 was read at 10 and 40 min; the ΔA265 in the presence of ligand was compared to that in its absence.
# The role of chelators in either inhibition or promotion of the Fenton reaction is related to their capacity to prevent Fe(III) from being reduced to Fe(II). Fe(II) is required for the reduction of H2O2 to HO. and HO^−. The assay involves spectrophotometrically monitoring the disappearance of ascorbate at pH 7.4 in the presence of FeCl3 and chelator at several ligand/Fe ratios. Under these conditions, ascorbate is oxidized to an L-ascorbyl radical anion. This anion then disproportionates to dehydroascorbic acid and ascorbate.
# as §3, with “chelators nitrilotriacetic acid (NTA), 1,2-dimethyl-3-hydroxypyridin-4-one (L1), desferrioxamine B (DFO), (S)-4′-(HO)-DADMDFT, and (S,S)-1,11-Bis[5-(4-carboxyl-4,5-dihydro-1,3-thiazol-2-yl)-2,4-dihydroxyphenyl]-4,8-dioxaundecane (BDU)” for “chelators”, “Nicholson, Free” for “Nicholson (Free”, “20:” for “20,”, “(1994).” for “(1994)).”
# The measurement examines the disappearance of ascorbate. It is known that DFO, a hydroxamate chelator that forms a 1:1 complex with Fe(III) at a formation constant of approximately 10^31 M^−1, prevents ascorbate-mediated reduction of Fe(III); it serves as a positive control in the present study. Both NTA and L1 promote ascorbate-mediated reduction of Fe(III) and serve as negative controls.
# [5] = Table 1, A734, six-minute reaction, pH 7.4, 1.25 to 15 μM
structure (smiles),measurement,setting,value
"O=C(O)[C@H]1CSC(c2cc(CCCOCCCOCCCc3cc(C4=N[C@@H](C(=O)O)CS4)c(O)cc3O)c(O)cc2O)=N1 [BDU, (S,S)-1,11-Bis[5-(4-carboxyl-4,5-dihydro-1,3-thiazol-2-yl)-2,4-dihydroxyphenyl]-4,8-dioxaundecane]",Slope × 10^3 OD units/μM (ABTS radical cation quenching),"[1]; Table 3, A734, 6-min reaction, values marked b are the inventors' unpublished results",−136 × 10^3 OD units/μM
same,"% bile (of iron excreted), rodents",iron [2]; 150 μmol/kg po,80%
same,"% urine (of iron excreted), rodents",iron [2]; 150 μmol/kg po,20%
same,efficiency in rodents (%),iron [2]; 150 μmol/kg po,0.9±0.4%
same,"% bile (of iron excreted), rodents",iron [2]; 150 μmol/kg sc,95%
same,"% urine (of iron excreted), rodents",iron [2]; 150 μmol/kg sc,5%
same,efficiency in rodents (%),iron [2]; 150 μmol/kg sc,6.5±2.0%
same,"% stool (of iron excreted), monkeys",iron [3]; 75 μmol/kg sc,98%
same,"% urine (of iron excreted), monkeys",iron [3]; 75 μmol/kg sc,2%
same,efficiency in monkeys (%),iron [3]; 75 μmol/kg sc,3.2±1.8% and 3.2 ± 1.8^g %
same,"% urine (of iron excreted), monkeys","iron [3]; 150 μmol/kg sc, n = 3",0%
same,efficiency in monkeys (%),"iron [3]; 150 μmol/kg sc, n = 3","2.1±1.4% and 2.1 ± 1.4^g,h %"
same,effect on ascorbate-mediated reduction of Fe(III) (in words),[4],significant protection
"Nc1ccc(O)c(C(=O)O)c1 [Compound 5-ASA, 5-aminosalicylic acid]",Slope × 10^3 OD units/μM (ABTS radical cation quenching),[1]; [5],−34.4 × 10^3 OD units/μM
same,effect on ascorbate-mediated reduction of Fe(III) (in words),[4],promoted ascorbate-mediated reduction of Fe(III)
same,effect on ascorbate-mediated reduction of Fe(III) (in words),[4]; listed as 5-aminosalicylic acid,increased the rate of iron(III) reduction
C[C@]1(C(=O)O)CSC(c2ccccc2O)=N1 [DADFT],Slope × 10^3 OD units/μM (ABTS radical cation quenching),[1]; [5],−25.1 × 10^3 OD units/μM
"O=C(O)C1CSC(c2ccccc2O)=N1 (stereo not drawn) [DADMDFT, desazadesmethyldesferrithiocin]",Slope × 10^3 OD units/μM (ABTS radical cation quenching),[1]; [5],−28.1 × 10^3 OD units/μM
"O=C(O)CN(CC(=O)O)CC(=O)O [NTA, nitrilotriacetic acid]",effect on ascorbate-mediated reduction of Fe(III) (in words),[4],profoundly stimulatory effect; also recorded: promoted ascorbate-mediated reduction of Fe(III)
same,effect on ascorbate-mediated reduction of Fe(III) (in words),[4]; listed as nitrilotriacetic acid,increased the rate of iron(III) reduction
"COCCOCCOCCN(O)C(C)=O [decyl hydroxamate, N-hydroxy,N-(3,6,9-trioxadecyl)acetamide]",effect on ascorbate-mediated reduction of Fe(III) (in words),[4],increased the rate of iron(III) reduction

# Source: patent publication US20050234113A1, “Antioxidant and radical scavenging activity of synthetic analogs of desferrithiocin” (University of Florida Research Foundation, Inc., priority 2002, published 2005)
